This passage reports Inhibition and IC50 results from ChEMBL document CHEMBL1148653, “Synthesis, structural reassignment, and biological activity of type B MAO inhibitors based on the 5H-indeno[1,2-c]pyridazin-5-one core” (J Med Chem, 2006).

pIC50: −log10 of the molar value.

Series [1] addresses T1, Amine oxidase [flavin-containing] A (Homo sapiens, UniProt P21397).
T1 sequence (P21397 whole entry): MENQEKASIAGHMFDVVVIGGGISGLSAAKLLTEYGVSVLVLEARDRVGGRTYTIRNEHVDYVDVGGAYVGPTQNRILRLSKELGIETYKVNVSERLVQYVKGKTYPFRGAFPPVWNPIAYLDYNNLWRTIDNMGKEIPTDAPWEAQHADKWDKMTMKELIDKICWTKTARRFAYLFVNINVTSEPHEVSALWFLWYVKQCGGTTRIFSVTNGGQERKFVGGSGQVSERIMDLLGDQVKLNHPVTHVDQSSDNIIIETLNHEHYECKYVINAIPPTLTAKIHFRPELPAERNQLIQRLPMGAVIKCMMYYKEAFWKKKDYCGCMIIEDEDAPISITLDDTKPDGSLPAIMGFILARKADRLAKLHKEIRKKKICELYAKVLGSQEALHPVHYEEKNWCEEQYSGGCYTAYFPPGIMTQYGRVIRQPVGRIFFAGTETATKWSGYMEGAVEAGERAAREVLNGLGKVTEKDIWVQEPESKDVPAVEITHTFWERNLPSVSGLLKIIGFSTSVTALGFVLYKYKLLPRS
The experiment in a line: Inhibition of MAO-A in human placental mitochondria at 5 uM. Set-up: species or system Placenta.

For series [2], the target named is T2, Amine oxidase [flavin-containing] A (Rattus norvegicus, UniProt P21396).
T2 sequence (P21396 whole entry): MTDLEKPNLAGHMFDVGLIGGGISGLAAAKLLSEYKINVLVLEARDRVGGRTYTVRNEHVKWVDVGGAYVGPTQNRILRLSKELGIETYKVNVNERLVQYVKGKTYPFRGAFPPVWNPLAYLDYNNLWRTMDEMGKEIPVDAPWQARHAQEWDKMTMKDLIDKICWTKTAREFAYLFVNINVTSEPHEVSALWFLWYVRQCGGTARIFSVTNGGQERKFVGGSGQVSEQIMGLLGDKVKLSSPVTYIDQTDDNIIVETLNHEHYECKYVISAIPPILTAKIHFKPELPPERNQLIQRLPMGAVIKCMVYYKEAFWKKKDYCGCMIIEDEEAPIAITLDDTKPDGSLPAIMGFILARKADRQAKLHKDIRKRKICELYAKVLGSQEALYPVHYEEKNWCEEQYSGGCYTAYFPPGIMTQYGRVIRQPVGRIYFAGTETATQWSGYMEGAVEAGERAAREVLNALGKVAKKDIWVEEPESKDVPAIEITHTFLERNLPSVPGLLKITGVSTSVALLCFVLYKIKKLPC
The experiment in a line: Inhibition of MAO-A in rat brain mitochondria.

The target of series [3] is T3, Amine oxidase [flavin-containing] B (Rattus norvegicus, UniProt P19643).
T3 sequence (P19643 whole entry): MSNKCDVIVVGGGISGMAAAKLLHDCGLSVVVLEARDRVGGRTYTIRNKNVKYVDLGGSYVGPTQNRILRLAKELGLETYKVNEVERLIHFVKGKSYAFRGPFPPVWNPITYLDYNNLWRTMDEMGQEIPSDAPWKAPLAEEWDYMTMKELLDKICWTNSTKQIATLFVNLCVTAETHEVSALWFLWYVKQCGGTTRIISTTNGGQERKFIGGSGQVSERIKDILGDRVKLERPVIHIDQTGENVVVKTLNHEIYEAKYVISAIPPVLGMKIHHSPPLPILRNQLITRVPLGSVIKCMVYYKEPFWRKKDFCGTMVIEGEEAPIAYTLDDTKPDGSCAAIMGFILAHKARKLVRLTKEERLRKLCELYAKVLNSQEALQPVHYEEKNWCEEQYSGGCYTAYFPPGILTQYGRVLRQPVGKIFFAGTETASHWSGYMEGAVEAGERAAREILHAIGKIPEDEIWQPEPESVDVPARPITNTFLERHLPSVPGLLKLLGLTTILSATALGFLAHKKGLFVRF
In words: Inhibition of MAO-B in rat brain mitochondria.

For the molecule `COc1ccc2c(c1)C(=O)c1cc(-c3cccc(C(F)(F)F)c3)nnc1-2`, the Inhibition entry in series [1] is on record as “Not Active”.

Broadly, the pIC50 is −log10 of the IC50, conventionally taken in molar units. On to `Cc1cc2c(nn1)-c1cc(OCc3ccccc3)ccc1C2=O`, for which the pIC50 in series [2] is < 6.00; in series [3], 6.77.

For the molecule `COc1ccc2c(c1)-c1nnc(-c3cccc(C(F)(F)F)c3)cc1C2=O`, in series [1], the Inhibition entry was “Not Active”.

Regarding `COc1ccc2c(c1)-c1nnc(C)cc1C2=O`, the pIC50 in series [2] and in series [3] was < 6.00 throughout.
